# Test results from patent publication US20140336616A1, “DELIVERY DEVICE” (INTERNATIONAL SCIENTIFIC PTY LTD, priority 2012, published 2014).
# Test system: excised human skin
# Test: Sodium fluorescein dye penetration into excised human skin in Franz cells, with LSCM imaging and image analysis
# Format: in vitro ADME
# Settings: 300 μL NaF 1 mg/mL in saline, 15 minutes, 34-35° C.; images from 73 μm deep
# Text: Microneedle Treatment: A piece of gauze was folded in half 4 times and then the skin sample placed on top. In-situ skin tension was approximately simulated by stretching the skin over the gauze and pinning in place. A pre-prepared microneedle impact applicator was then used to apply the microneedle to the skin at speed (approximately 3 m·s−1). This applicator consisted of a housing, a spring-loaded plunger and the banks of laser cut microneedles (two 3-needle banks gave a total of 6 microneedles). The banks were mounted into the plunger which was then drawn back, loading the spring, and held in place using a pin. Upon removal of the pin, the plunger accelerated towards the skin, driving the microneedles through the stratum corneum and into the viable epidermis and dermis.
# Dye incubation in Franz Cells: A Franz cell was prepared by applying vacuum grease to the sealing surfaces of the receptor and donor. […]
# Laser scanning confocal microscopy (LSCM): To prepare the samples for LSCM, a cut was made around the imprint made by the Franz cell. […] The LSCM machine was then switched to the fluorescent mode with 488 nm excitation and 550±88 nm emission band was recorded. […]
# Image analysis: The image data names were encoded to blind the image analysis researcher. […] Image J (NIH, Bethesda, Md.) was then used to quantify fluorescence intensity and dye positive areas. […]
compound,measurement,value
"O=C1OC2(c3ccc(O)cc3Oc3cc(O)ccc32)c2ccccc21 [NaF, Sodium Fluorescein]","NaF dye penetration / fluorescence pattern (LSCM, visual)",no penetration of the dye beyond the stratum corneum
